Source: US11897862B2 (Gilead Sciences, Inc., priority 2022, dated 2024)

Tests used:
Assay type in all cases: cell-based
IKZF2 [1] = target: T1, IKZF2 (Homo sapiens, UniProt Q96SW2+Q9UKS7); assay: Human whole blood IKZF2 degradation (flow cytometry, CD4/CD25/Foxp3+ Treg cells); parameters: endogenous in cells; settings: 24 hrs incubation, IKZF2 MFI in CD4/CD25/Foxp3+ Treg cells, flow cytometry; for DC50: read-out: IKZF2 EC50
Method: In vitro IKZF2 potency was assessed in human whole blood using a fluorescence activated cell sorting assay. 50 μL of freshly collected blood from healthy human volunteers was incubated with Immunocult CD3/CD28 activator (Stemcell Technologies) and solution of testing compounds (serially-diluted) for 24 hrs hours at 37° C. in 384 well plates. The treated red blood cells were removed by adding lysis buffer (BD cat #558049) then the cells were fixed, permeabilized, and stained with anti-CD4 (BD cat #564419), anti-Foxp3 (Invitrogen cat #48-4777-42), anti-IKZF1 (Cell Signaling Tech. cat #33462S), and anti-IKZF2(Cell Signaling Tech. cat #65432S) antibodies. The median fluorescent intensity (MFI) of IKZF2 signal from CD4/CD25/Foxp3+ Treg cells and MFI of IKZF1 signal from CD4+ T cells were quantified in the same samples by flow cytometry using an Attune instrument. EC50 and Dmax of each compound was determined by plotting the MFI and DMSO treated wells were used as control. Asterisks (*) indicate examples for which data represents an average of n≥3 repeat experiments.
Target sequence in this assay (Q9UKS7 whole entry): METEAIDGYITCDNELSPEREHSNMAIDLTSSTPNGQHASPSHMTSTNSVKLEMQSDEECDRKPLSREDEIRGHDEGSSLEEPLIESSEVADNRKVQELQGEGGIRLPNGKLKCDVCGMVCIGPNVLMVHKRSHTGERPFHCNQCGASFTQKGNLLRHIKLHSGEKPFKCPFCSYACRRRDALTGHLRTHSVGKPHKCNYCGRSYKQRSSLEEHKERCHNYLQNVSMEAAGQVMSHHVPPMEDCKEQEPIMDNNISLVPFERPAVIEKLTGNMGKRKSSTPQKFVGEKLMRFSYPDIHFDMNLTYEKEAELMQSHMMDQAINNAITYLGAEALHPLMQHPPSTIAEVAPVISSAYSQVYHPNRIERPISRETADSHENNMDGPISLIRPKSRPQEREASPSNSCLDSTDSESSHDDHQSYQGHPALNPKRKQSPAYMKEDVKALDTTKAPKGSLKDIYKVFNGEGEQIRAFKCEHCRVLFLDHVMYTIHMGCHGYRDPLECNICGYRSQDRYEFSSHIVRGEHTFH
Target sequence in this assay (Q96SW2 whole entry): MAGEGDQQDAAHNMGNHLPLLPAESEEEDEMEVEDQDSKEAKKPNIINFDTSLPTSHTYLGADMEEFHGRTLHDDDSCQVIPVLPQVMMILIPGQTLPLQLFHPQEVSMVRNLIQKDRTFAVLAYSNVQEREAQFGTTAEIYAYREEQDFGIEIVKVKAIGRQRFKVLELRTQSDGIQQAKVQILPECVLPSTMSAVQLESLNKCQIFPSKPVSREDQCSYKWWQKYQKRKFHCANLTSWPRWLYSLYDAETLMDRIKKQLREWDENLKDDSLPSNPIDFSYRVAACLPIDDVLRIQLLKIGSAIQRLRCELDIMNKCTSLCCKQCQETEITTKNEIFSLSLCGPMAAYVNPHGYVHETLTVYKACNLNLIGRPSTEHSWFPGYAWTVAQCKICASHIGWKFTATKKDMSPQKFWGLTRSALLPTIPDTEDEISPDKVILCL
Target sequence in this assay (Q16531 whole entry partner): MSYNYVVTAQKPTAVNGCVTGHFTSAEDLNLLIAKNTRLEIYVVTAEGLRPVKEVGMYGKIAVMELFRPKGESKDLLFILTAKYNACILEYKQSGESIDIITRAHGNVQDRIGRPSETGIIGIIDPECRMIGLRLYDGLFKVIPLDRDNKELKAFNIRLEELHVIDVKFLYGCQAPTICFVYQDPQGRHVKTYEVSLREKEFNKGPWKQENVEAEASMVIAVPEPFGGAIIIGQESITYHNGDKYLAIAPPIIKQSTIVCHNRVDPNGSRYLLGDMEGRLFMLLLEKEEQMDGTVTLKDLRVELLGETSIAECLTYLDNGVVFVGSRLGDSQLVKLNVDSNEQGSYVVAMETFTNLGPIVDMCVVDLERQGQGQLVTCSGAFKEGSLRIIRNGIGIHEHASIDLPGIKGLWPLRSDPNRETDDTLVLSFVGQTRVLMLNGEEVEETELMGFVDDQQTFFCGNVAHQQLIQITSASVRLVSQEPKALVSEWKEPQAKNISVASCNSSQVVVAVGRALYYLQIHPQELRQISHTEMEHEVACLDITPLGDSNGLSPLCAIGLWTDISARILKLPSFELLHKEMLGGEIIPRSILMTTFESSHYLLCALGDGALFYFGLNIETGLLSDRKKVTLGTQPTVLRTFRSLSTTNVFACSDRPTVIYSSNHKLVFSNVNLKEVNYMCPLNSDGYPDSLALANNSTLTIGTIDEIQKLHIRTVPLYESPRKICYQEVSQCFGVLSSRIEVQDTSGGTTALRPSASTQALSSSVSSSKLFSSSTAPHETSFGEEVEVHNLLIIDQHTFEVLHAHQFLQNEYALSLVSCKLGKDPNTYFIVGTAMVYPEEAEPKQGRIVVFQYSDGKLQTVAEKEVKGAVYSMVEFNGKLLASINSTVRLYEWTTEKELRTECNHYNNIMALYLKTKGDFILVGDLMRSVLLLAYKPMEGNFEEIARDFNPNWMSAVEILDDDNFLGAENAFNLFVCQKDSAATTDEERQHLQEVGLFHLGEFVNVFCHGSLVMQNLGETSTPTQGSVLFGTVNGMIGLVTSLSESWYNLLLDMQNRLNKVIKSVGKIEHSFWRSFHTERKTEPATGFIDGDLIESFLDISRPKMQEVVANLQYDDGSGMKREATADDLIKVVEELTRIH

IKZF2 [2] = target: T1, IKZF2; assay: HEK293 HiBiT in vitro degradation of IKZF2; parameters: expressed in transfected cells; settings: for DC50 / IKZF2 Dmax: HEK293 HiBiT; for DC50: 18-24 hr incubation, normalized to DMSO control, read-out: IKZF2 EC50; for IKZF2 Dmax / Dmax: maximum degradation at the highest concentration tested; for Dmax: HEK293, HEK293 HiBiT
In short: (§1)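 Stable HEK293 reporter pools, each with one integrated tet-inducible copy of a HiBiT-tagged target, were induced with doxycycline overnight at 37 °C. After 18-24 h with compound dilution series, Nano-Glo lysis and luminescence yielded EC50 and Dmax values.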
Target sequence in this assay (Q9UKS7 1-500 isoform Q9UKS7-2): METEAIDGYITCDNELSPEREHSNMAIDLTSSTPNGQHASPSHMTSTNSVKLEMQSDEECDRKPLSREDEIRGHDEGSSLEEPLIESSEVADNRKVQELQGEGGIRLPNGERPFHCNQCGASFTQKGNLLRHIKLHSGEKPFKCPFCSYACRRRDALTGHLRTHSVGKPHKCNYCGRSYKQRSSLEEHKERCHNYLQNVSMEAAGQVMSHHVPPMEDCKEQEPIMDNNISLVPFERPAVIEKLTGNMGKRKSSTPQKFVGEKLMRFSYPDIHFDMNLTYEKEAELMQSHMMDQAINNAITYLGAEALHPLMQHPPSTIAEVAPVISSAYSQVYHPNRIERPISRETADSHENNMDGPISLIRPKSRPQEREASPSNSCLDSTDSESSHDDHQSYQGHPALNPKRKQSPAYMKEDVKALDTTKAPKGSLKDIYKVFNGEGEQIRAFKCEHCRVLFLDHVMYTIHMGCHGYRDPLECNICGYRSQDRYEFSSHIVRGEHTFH
Target sequence in this assay (Q96SW2 whole entry): as the sequence (Q96SW2 whole entry) above
Target sequence in this assay (Q16531 whole entry partner): as the sequence (Q16531 whole entry partner) above

IKZF1 = target: T2, IKZF1 (Homo sapiens, UniProt Q13422+Q96SW2); assay: HEK293 HiBiT in vitro degradation of IKZF1; settings: for Dmax: HEK293, HEK293 HiBiT; for Dmax / IKZF1 Dmax: maximum degradation at the highest concentration tested; for DC50 / IKZF1 Dmax: HEK293 HiBiT; for DC50: 18-24 hr incubation, normalized to DMSO control, read-out: IKZF1 EC50
T2 construct: expressed in transfected cells
In short: as §1

T2 sequence (Q13422 whole entry): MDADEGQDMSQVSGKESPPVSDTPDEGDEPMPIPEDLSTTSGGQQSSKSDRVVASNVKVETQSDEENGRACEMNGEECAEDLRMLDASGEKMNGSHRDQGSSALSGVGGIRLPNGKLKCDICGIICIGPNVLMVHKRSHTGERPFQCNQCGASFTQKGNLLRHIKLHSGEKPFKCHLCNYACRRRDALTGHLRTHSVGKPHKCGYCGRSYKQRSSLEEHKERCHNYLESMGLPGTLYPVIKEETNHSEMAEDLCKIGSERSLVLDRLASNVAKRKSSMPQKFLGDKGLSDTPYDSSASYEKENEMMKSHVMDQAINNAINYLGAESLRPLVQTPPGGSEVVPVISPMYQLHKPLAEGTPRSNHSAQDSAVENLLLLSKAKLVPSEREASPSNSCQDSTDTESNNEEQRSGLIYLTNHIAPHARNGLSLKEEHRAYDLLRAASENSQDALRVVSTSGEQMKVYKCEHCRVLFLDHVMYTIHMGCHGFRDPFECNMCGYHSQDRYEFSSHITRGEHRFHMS
T2 sequence (Q96SW2 whole entry): as the sequence (Q96SW2 whole entry) above
T2 sequence (Q16531 whole entry partner): as the sequence (Q16531 whole entry partner) above

IKZF2 Dmax (IKZF2 [1]) [%]	DC50 (IKZF2 [1]) [nM]	DC50 (IKZF2 [2]) [nM]	IKZF2 Dmax (IKZF2 [2]) [%]	Dmax (IKZF1) [%]	DC50 (IKZF1) [nM]	Dmax (IKZF2 [1]) [%]	Dmax (IKZF2 [2]) [%]	IKZF1 Dmax (IKZF1) [%]	Structure (SMILES)
99	2	1	97	34	54	–	–	–	CC(N[C@H]1CCCC[C@@H]1Cc1ccc2c(c1)CN(C1CCC(=O)NC1=O)C2=O)C1CC(F)(F)C1 (single isomer, unassigned) [Example 137]
–	4	2	–	44	55	100	96	–	O=C1CCC(N2Cc3cc(C[C@H]4CCCC[C@@H]4NC4CCC(OC(F)(F)F)CC4)ccc3C2=O)C(=O)N1 (single isomer, unassigned) [Example 145]
–	4	5	–	–	> 1000	95	97	–	CC(N[C@H]1CCCO[C@@H]1Cc1ccc2c(c1F)CN(C1CCC(=O)NC1=O)C2=O)C1CCC1 (single isomer, unassigned) [Example 247]
–	4	2	97	30	117	100	–	–	CC(CC(F)(F)F)N[C@H]1CCCC[C@@H]1Cc1ccc2c(c1)CN(C1CCC(=O)NC1=O)C2=O (single isomer, unassigned) [Example 250]
–	2	1	–	35	213	98	98	–	COCC1CCC(N[C@H]2CCCC[C@@H]2Cc2ccc3c(c2)CN(C2CCC(=O)NC2=O)C3=O)CC1 (single isomer, unassigned) [Example 251]
97	1	3	98	–	105	–	–	31	COCC1CCC(N[C@H]2CCCC[C@@H]2Cc2ccc3c(c2)CN(C2CCC(=O)NC2=O)C3=O)CC1 (single isomer, unassigned) [Example 252]
–	6	4	–	32	55	98	97	–	O=C1CCC(N2Cc3cc(C[C@H]4CCCC[C@@H]4NC4CC5CC5C4)ccc3C2=O)C(=O)N1 (single isomer, unassigned) [Example 266]
–	2	4	–	44	109	97	98	–	N#CC1CCC(N[C@H]2CCCC[C@@H]2Cc2ccc3c(c2)CN(C2CCC(=O)NC2=O)C3=O)CC1 (single isomer, unassigned) [Example 267]
–	2	1	98	–	40	97	–	54	O=C1CCC(N2Cc3cc(C[C@H]4CCCC[C@@H]4NC4CCC5(CC4)CC5(F)F)ccc3C2=O)C(=O)N1 (single isomer, unassigned) [Example 272]
–	2	3	–	37	114	95	98	–	COC1CCC(N[C@H]2CCCC[C@@H]2Cc2ccc3c(c2)CN(C2CCC(=O)NC2=O)C3=O)CC1 (single isomer, unassigned) [Example 277]
–	5	2	–	30	43	98	96	–	O=C1CCC(N2Cc3cc(C[C@H]4CCCC[C@@H]4NC4CCC5(CC5)C4)ccc3C2=O)C(=O)N1 (single isomer, unassigned) [Example 281]
92	5	6	97	–	399	–	–	32	CC(N[C@H]1CCCC[C@@H]1Cc1ccc2c(c1F)CN(C1CCC(=O)NC1=O)C2=O)C1CCOCC1 (single isomer, unassigned) [Example 288]
–	2	2	–	–	> 1000	96	98	–	CCC(C)N[C@H]1CCCC[C@@H]1Cc1ccc2c(c1)CN(C1CCC(=O)NC1=O)C2=O (single isomer, unassigned) [Example 299]
–	2	4	–	36	462	98	99	–	CC(C)N[C@H]1CCCC[C@@H]1Cc1ccc2c(c1)CN(C1CCC(=O)NC1=O)C2=O (stereo partly drawn) [Example 7, 3-(5-(((1R,2S)-2-(isopropylamino)cyclohexyl)methyl)-1-oxoisoindolin-2-yl)piperidine-2,6-dione]
–	6	6	–	14	374	98	95	–	CCC(CC)N[C@H]1CCCC[C@@H]1Cc1ccc2c(c1)CN(C1CCC(=O)NC1=O)C2=O (stereo partly drawn) [Example 23, 3-(1-oxo-5-(((1R,2S)-2-(pentan-3-ylamino)cyclohexyl)methyl)isoindolin-2-yl)piperidine-2,6-dione]
–	8	10	–	25	345	89	91	–	O=C1CCC(N2Cc3cc(C[C@H]4CCCC[C@@H]4NCC4CC(F)(F)C4)ccc3C2=O)C(=O)N1 (stereo partly drawn) [Example 24, 3-(5-(((1R,2S)-2-(((3,3-difluorocyclobutyl)methyl)amino)cyclohexyl)methyl)-1-oxoisoindolin-2-yl)piperidine-2,6-dione]
–	3	2	–	56	327	99	97	–	O=C1CCC(N2Cc3cc(C[C@H]4CCCC[C@@H]4NC4CCC5(CC4)CC5)ccc3C2=O)C(=O)N1 (stereo partly drawn) [Example 28, 3-(1-oxo-5-(((1R,2S)-2-(spiro[2.5]octan-6-ylamino)cyclohexyl)methyl)isoindolin-2-yl)piperidine-2,6-dione]
–	5	6	–	–	> 1000	95	96	–	O=C1CCC(N2Cc3cc(C[C@H]4CCCC[C@@H]4NC4CCCC4)ccc3C2=O)C(=O)N1 (stereo partly drawn) [Example 52, 3-(5-(((1R,2S)-2-(cyclopentylamino)cyclohexyl)methyl)-1-oxoisoindolin-2-yl)piperidine-2,6-dione]
–	8	14	–	44	68	97	96	–	CC(C)(C)CCN[C@H]1CCCC[C@@H]1Cc1ccc2c(c1)CN(C1CCC(=O)NC1=O)C2=O (stereo partly drawn) [Example 56, 3-(5-(((1R,2S)-2-((3,3-dimethylbutyl)amino)cyclohexyl)methyl)-1-oxoisoindolin-2-yl)piperidine-2,6-dione]
–	19	19	–	–	> 1000	91	89	–	O=C1CCC(N2Cc3cc(C[C@H]4CCCC[C@@H]4NCC45CC(C4)C5)ccc3C2=O)C(=O)N1 (some centres unmarked) [Example 63]
–	3	4	–	55	226	93	96	–	O=C1CCC(N2Cc3cc(C[C@H]4CCCC[C@@H]4NC4CCOCC4)ccc3C2=O)C(=O)N1 (some centres unmarked) [Example 74]
–	5	5	–	33	98	93	94	–	O=C1CCC(N2Cc3cc(C[C@H]4CCCC[C@@H]4NC4CC5(CC5)C4)ccc3C2=O)C(=O)N1 (stereo partly drawn) [Example 79, 3-(1-oxo-5-(((1R,2S)-2-(spiro[2.3]hexan-5-ylamino)cyclohexyl)methyl)isoindolin-2-yl)piperidine-2,6-dione]
–	4	7	–	28	327	89	94	–	CC1(C)CC(N[C@H]2CCCC[C@@H]2Cc2ccc3c(c2)CN(C2CCC(=O)NC2=O)C3=O)C1 (stereo partly drawn) [Example 82, 3-(5-(((1R,2S)-2-((3,3-dimethylcyclobutyl)amino)cyclohexyl)methyl)-1-oxoisoindolin-2-yl)piperidine-2,6-dione]
–	2	2	–	40	70	96	97	–	CC(C)N[C@H]1CCCC[C@@H]1Cc1ccc2c(c1F)CN(C1CCC(=O)NC1=O)C2=O (stereo partly drawn) [Example 85, 3-(4-fluoro-5-(((1R,2S)-2-(isopropylamino)cyclohexyl)methyl)-1-oxoisoindolin-2-yl)piperidine-2,6-dione]
